In patent US11124540B2, “Polypeptides for the treatment of diseases” (Neopep Pharma GmbH & Co., KG, priority 2017, dated 2021):

Tested on: Pancreas carcinoma cells
Test: Cancer cell invasion assay on humanized rats with implanted pancreas carcinoma cells
Assay type: in vivo
Settings: for Tumor response, 2 w after end of therapy: 2 weeks after end of therapy; for Tumor response, 1 w of therapy: after 1 week of therapy; for Tumor response, 2 w of therapy: after 2 weeks of therapy
Description: The cancer cell invasion assay was performed on humanized rats (Eyol, E. et al., Oncology Reports, 28: 2177-2187, 2012). Pancreas carcinoma cells were implanted. The successful implant was observed by luminescent imaging as well as by an increase in CXCR4 expression.
After a successful implant of carcinoma cells, the rats were treated with a peptide according to Seq ID No. 1 and Seq. ID No. 9 respectively. The results after 1 week of therapy (1 w of therapy), after 2 weeks of therapy (2 w of therapy) and 2 weeks after end of therapy are depicted in the below tables.

ILRWSRKMPQFS (human) [Seq ID No. 9, Ile Leu Arg Trp Ser Arg Lys Met Pro Gln Phe Ser]
Tumor response, 2 w after end of therapy (amount of peptide 35 mg): Tumor growth
Tumor response, 2 w after end of therapy (amount of peptide 70 mg): Tumor growth
Tumor response, 1 w of therapy (amount of peptide 70 mg): Tumor growth

IVRWSKKVPQVS (human) [Seq ID No. 1, Ile Val Arg Trp Ser Lys Lys Val Pro Gln Val Ser]
Tumor response, 2 w of therapy (amount of peptide 7 mg): No tumor growth
Tumor response, 2 w after end of therapy (amount of peptide 10 mg): Tumor growth
Tumor response, 1 w of therapy (amount of peptide 10 mg): No tumor growth
Tumor response, 2 w of therapy (amount of peptide 10 mg): Tumor growth
Tumor response, 2 w after end of therapy (amount of peptide 20 mg): Complete Remission
Tumor response, 1 w of therapy (amount of peptide 20 mg): No tumor growth
Tumor response, 2 w after end of therapy (amount of peptide 70 mg): Complete Remission
Tumor response, 1 w of therapy (amount of peptide 70 mg): No tumor growth
Tumor response, 2 w of therapy (amount of peptide 70 mg): Remission
